Experimental data from article PMC10955247, “In vivo screening for toxicity-modulating drug interactions identifies antagonism that protects against ototoxicity in zebrafish” (Frontiers in Pharmacology, 2024).
Structures can show the parent of a compound that is named as a salt.

Key:
[1] = test system: zebrafish lateral line hair cells; assay: PEPITA quantification of ototoxicity in YO-PRO-1-stained AB zebrafish larvae; type: in vivo
Protocol: Therefore, at 5 dpf, larvae were transferred to 12-well plates (5–11 fish per well, 1 well per condition) containing the relevant compound or combination diluted with ICS water, or ICS water alone or high-dose neomycin to serve as controls. Unless otherwise noted, fish were exposed to drug (either an individual compound or a pairwise combination of compounds) for 4 h, as a balance between longer exposure times for accommodating varied kill kinetics and shorter exposure times for technical tractability. Treatments with multiple drugs involved co-administering a prepared solution consisting of both drugs with defined concentrations in ICS water.
Fluorescence microscopy was performed using a Keyence BZ-X800 microscope imaging system, which enables high-throughput semi-automated imaging of 96-well plates.
(§1) Each image was masked using automated object detection to include only the fish itself. Manual masks were created on occasion for avoidance of fluorescent contamination, adjusted segmenting for myo6b::gfp fish to remove inner ear HC fluorescence, or exclusion of dead or damaged fish. Each fish was then adjusted for autofluorescence using the fluorophore-free red channel and scored based on the sum of green fluorescence pixel values surrounding 10 of the top 15 brightest pixels in the masked image (Figures 1B–E). These scores were standardized by comparison with the median score of wells containing untreated fish and a score representing no remaining HC fluorescence, both derived for each plate.
Wells where the expected response ( Ra×Rb ) and observed response ( Rab ) were both less than 10% or greater than 90% were excluded from aggregation to reduce the effect of our choice of dose range. The remaining wells were summarized by averaging into a composite interaction score for the combination; we refer to this metric as the “windowed excess over Bliss” (wEOB).

[2] = test system: zebrafish lateral line hair cells; assay: Standard assay: manual hair cell counting from individual neuromasts (confocal); type: in vivo, Danio rerio; details: same representative experiment as PEPITA curve; read-out: EC50 (Standard Assay, normalized HC counts from individual neuromasts)
Protocol: To prepare the fish for confocal microscopy, fish were fixed in 2% paraformaldehyde for 1 hour at room temperature as described previously ([Philip et al., 2018]), before being transferred to fluoromount and mounted between two glass coverslips. To avoid crushing the fish, a dot of nail polish was placed on each corner of the coverslip so that the top coverslip sat slightly above the bottom coverslip where the fish was mounted. Fluorescent confocal microscopy was performed using a Leica Stellaris 8 microscope. Cranial lateral line neuromasts of each fish were imaged under an HC PL APO CS2 40x/1.30 oil objective with a 405 nm laser and 541/47 emission filter. Images were taken as z-stacks in 0.66 µm steps. Stacks were transformed into average intensity projections and prepared for visual analysis in ImageJ.
For hair cell survival quantification from individual neuromasts, trained observers counted surviving hair cells in confocal images of neuromasts of larvae that had been treated with various doses of neomycin. Two to eight neuromasts were scored per condition, and counts for each neuromast were averaged between two scorers. These counts were divided by previously characterized mean hair cell counts ([Harris et al., 2003]), matched by anatomical position, to yield a position-scaled measure of HCs present in each neuromast. […]

[3] = test system: zebrafish lateral line hair cells; assay: Ototoxic dose response in myo6b::gfp zebrafish larvae; type: in vivo, Danio rerio; details: myo6b::gfp fish; read-out: dose required to elicit 50% of maximal HC damage (EC50)
Protocol: For drug dose response testing, zebrafish of the wildtype genetic background AB (Table 1) and fish that were transgenic for GFP under the myo6b HC-specific promoter (Tg (myo6b:EGFP), Table 1) were raised as described previously ([Westerfield, 2007]; [Farr et al., 2020]). […]
as §1, with “The resulting images were analyzed for dose-response and drug interaction characteristics with” for “Each image was masked using automated object detection to include only”, “PEPITA software package, which can be found on GitHub (https://github.com/ma-lab-cgidr/PEPITA-tools). […]” for “fish itself.”, “plate. […]” for “plate.”
To further explore the mechanism of macrolide and aminoglycoside antagonism, we fluorescently labeled the aminoglycosides neomycin and gentamicin with Texas Red-X succinimidyl ester to track HC uptake with and without macrolide treatment (Table 1). […] Drug-induced injury was quantified by loss of fluorescence in HCs. […]

For `NC[C@@H]1O[C@H](O[C@H]2[C@@H](O)[C@H](O[C@@H]3[C@@H](O)[C@H](N)C[C@H](N)[C@H]3O[C@H]3O[C@H](CN)[C@@H](O)[C@H](O)[C@H]3N)O[C@@H]2CO)[C@H](N)[C@@H](O)[C@@H]1O` [Neomycin, Neomycin sulfate hydrate], the “RFU (residual HC fluorescence)” value ([1]; AZM 0 μM, NEO 6.4 μM, 4 h) was 10%, the “RFU (residual HC fluorescence)” value ([1]; AZM 96 μM + NEO 6.4 μM, 4 h) was 88% and the “windowed excess over Bliss (wEOB)” value ([1]; AZM + NEO checkerboard, negative = antagonism) was −0.36. For the same compound, the “dose needed to elicit 75% maximal HC damage (EC75)” value ([1]; NEO alone, 4 h) was 3.3 µM, the “ototoxic interaction with AZM” value ([1]; co-administration with AZM) was “otoprotective antagonistic interactions” and the “shift toward antagonism in lateral line HC damage as compared to inhibition of the bacterial species on average” value ([1]; interaction with AZM, zebrafish wEOB vs average of E. coli, M. abscessus, S. aureus) was 44 %pt. For the same compound, the EC75 shift ([1]; ototoxin co-administered with azithromycin (AZM) vs administered alone) was 13 fold, the EC75 shift ([1]; ototoxin co-administered with azithromycin (AZM) vs administered alone, listed as Neomycin (NEO)) was 13-fold and the EC75 shift ([1]; ototoxin co-administered with erythromycin (ERY) vs administered alone, listed as NEO) was 8 fold. The EC75 shift ([1]; ototoxin co-administered with erythromycin (ERY) vs administered alone, listed as Neomycin (NEO)) was 8-fold, the “ototoxic interaction with clarithromycin (CLM)” value ([1]; preliminary experiments) was “antagonistic interactions” and the EC50 ([1]; representative experiment, HC damage dose response, read-out: EC50 (PEPITA, relative fluorescence units)) was 1.4 µM. For the same compound, the EC50 [2] was 2 µM and the EC50 [3] was 20 µM.
